According to patent US10736933B2, “Peptide-induced NK cell activation” (priority 2015, dated 2020):

Experiments:
Format in all cases: cell-based
[1] = tested on: KIR2DS2-positive NK cells; experiment: CD107a degranulation of NK cells from KIR2DS2-positive donors cultured with peptide-loaded L721.174 cells
Method: A. cells were incubated in the presence or absence of peptides, and then cultured with NK cells from either a KIR2DS2-positive or KIR2DS2-negative donor. The level of CD107a (LAMP) expression was measured on NK cells positive for the CH-L antibody. This antibody binds to KIR2DS2, KIR2DL2 and KIR2DL3. B. Summary data from 5 KIR2DS2-positive and 6 KIR2DS2 • negative donors tested as per panel A of FIG. 2. To compare the different donors the data are normalized to 100% for the no peptide condition.
With reference to FIG. 2A, 3×10^5 L721.174 cells were incubated at 26° C. overnight in the presence or absence of peptides, and then cultured for four hours with NK cells from either a KIR2DS2-positive or KIR2DS2-negative donor. The level of CD107a (LAMP) expression was measured on NK cells positive for the CH-L antibody. This antibody binds to KIR2DS2, KIR2DL2 and KIR2DL3. […] With reference to FIG. 2B, summary data from 5 KIR2DS2-positive and 6 KIR2DS2 • negative donors were tested as per panel A of FIG. 2. To compare the different donors the data are normalized to 100% for the no peptide condition.

[2] = tested on: NK cell line transfected with KIR2DS2; experiment: DAP12 phosphorylation after KIR2DS2 immunoprecipitation (Western blot); conditions: L721.174 cells with peptide at a concentration of 2004, NK cell line with KIR2DS2 for 5 minutes
Method: (§1) A. L721.174 cells were incubated with indicated peptides. The cells were then incubated with the NK cell line transfected with KIR2DS2. The cells were lysed and the KIR2DS2 was then immunoprecipitated from the mixture using the GL183 antibody coupled to protein-G beads. The immune precipitate was analysed by Western blotting using a phosphotyrosine antibody. The membrane was then stripped and reprobed with an antibody to DAP12 the molecule that transduces a positive signal from KIR2DS2. Shown are the regions on the blots at the level of DAP12 (12-15 kDa). B. L721.174 cells were incubated with indicated peptides. The cells were then incubated with the NK cell line transfected with KIR2DS2 or transfected with KIR2DL2. The cells were lysed in 1% NP-40 and then analysed by Western blotting using antibodies to pVav1 and then following stripping of the membrane to Vav1. Shown are Western blots around the 98 kDa region, and below them the corresponding densitometries for 3 independent experiments.
With reference to FIG. 6A, 1×10^6 L721.174 cells were incubated overnight at 26° C. with indicated peptides at a concentration of 2004. […] The immune precipitate was analysed by Western blotting using a phosphotyrosine antibody. […] The cells were lysed in 1% NP-40 and then analysed by Western blotting using antibodies to pVav1 and then following stripping of the membrane to Vav1. […]

[3] = tested on: KIR2DS2-positive NK cell clones; experiment: Cytotoxicity of NK cell clones against peptide-loaded L721.174 cells (Live/Dead stain); conditions: KIR2DS2-positive clones 4, 6, 9 only (not KIR2DS2-negative clone 27); compared to no peptide or VAPWNSFAL
Method: (§2) L721.174 cells were incubated in the presence or absence of the peptides VAPWNSFAL (SEQ ID NO: 12) and the LNPSVAATL (SEQ ID NO: 5). The cells were then labeled with the cell tracker orange dye, and then cultured with KIR2DS2-positive NK cell clones (clones 4,6,9) or a KIR2DS2-negative NK cell clone (clone 27). Cytotoxicity was then determined using Live/Dead® fixable far-red stain.
as §2, with “With reference to FIG. 3, 3×10^5 L721.174” for “L721.174”, “incubated at 26° C. overnight” for “incubated”, “cultured for four hours” for “cultured”

[4] = tested on: NKL cell line transfected with KIR2DS2; experiment: Vav1 phosphorylation (pVav1 Western blot) in NKL cells transfected with KIR2DS2; conditions: L721.174 (HLA-Cw*0102) cells loaded with peptide; KIR2DS2-transfected NKL, 5 minutes
Method: as §1
FIG. 7 1×10^6 L721.221-HLA-C*0304-ICP47 cells were incubated overnight at 26° C. with indicated peptides at a concentration of […]. The cells were then incubated with the NKL cell line transfected with KIR2DS2 or transfected with KIR2DL2 for 5 minutes. The cells were lysed in 1% NP-40 and then analysed by Western blotting using antibodies to pVav1 and then following stripping of the membrane to Vav1. Shown are Western blots around the 98 kDa region, and below them the corresponding densitometries for 2 independent experiments.
FIG. 14—The Dengue virus peptide IVDLMCHATF (SEQ ID NO: 1) activates KIR2DS2 positive NK cells. 174 cells were incubated with the IVDLMCHATF (SEQ ID NO: 1) and then KIR2DS2-positive transfected NKL cells or KIR2DL2-positve transfected NKL cells. Activation of NK cells was assessed by western blotting for phosphorylated Vav1, and compared to total Vav1.
With reference to FIG. 6A, 1×10^6 L721.174 cells were incubated overnight at 26° C. with indicated peptides at a concentration of […]. The cells were then incubated with the NK cell line transfected with KIR2DS2 for 5 minutes. The cells were lysed in 1% digitonin buffer and the KIR2DS2 was then immunoprecipitated from the mixture using the GL183 antibody coupled to protein-G beads. The immune precipitate was analysed by Western blotting using a phosphotyrosine antibody. […] The cells were lysed in 1% NP-40 and then analysed by Western blotting using antibodies to pVav1 and then following stripping of the membrane to Vav1. […]
With reference to FIG. 7, 1×10^6 HLA-C*0304:ICP47:721.221 cells were incubated overnight at 26° C. with indicated peptides at a concentration of […]. […] The cells were lysed in 1% NP-40 and then analysed by Western blotting using antibodies to pVav1 and then following stripping of the membrane to Vav1. […]

Sequence | level of CD107a (LAMP) degranulation ([1]; KIR2DS2-positive donor, CH-L antibody positive NK cells, four hours, compared to no peptide) | level of CD107a (LAMP) degranulation ([1]; KIR2DS2-positive donors, in combination with VAPWNSFAL, compared to the VAPWNSFAL peptide alone) | phosphorylation of DAP12 [2] | killing of L721.174 cell line [3] | activation of NK cells (phosphorylated Vav1 compared to total Vav1) [4]
LNPSVAATL [peptide recognized by KIR2DS2-positive NK cells] | higher levels of degranulation | higher levels of degranulation | induces phosphorylation of DAP12 | killed the L721.174 cell line to greater extent | activates NK cells expressing KIR2DS2
IVDLMCHATF [Dengue virus peptide] | – | – | – | – | activated KIR2DS2
